Measurements: PubChem BioAssay AID248 (DTP/NCI, 2004)
Several values for one entry are separate records, joined by “and”; a condition that tells them apart may be missing. Equal values may be shown once. Inconclusive results and toxic doses are left out. Rule as the data show it: active = T/C of 150% or more; inactive = T/C below 125%.

System: L1210 leukemia ip in BDF1 mice, survival T/C
Test: NCI In Vivo Anticancer Drug Screen. Data for tumor model L1210 Leukemia (intraperitoneal) in B6D2F1 (BDF1) mice
Details: endpoint: mean survival time, higher = longer survival
Method in brief: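 Ratio derived from survival: compound-dosed mice over vehicle-dosed mice, all bearing a transplantable tumor.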

[1] = dose: 100.0 mg/kg/injection, schedule: Q01DX009 (ip), vehicle: saline with Tween-80
[2] = dose: 100.0 mg/kg/injection, schedule: Q04DX003 (ip), vehicle: saline with Tween-80
[3] = dose: 200.0 mg/kg/injection, schedule: Q01DX009 (ip), vehicle: saline with Tween-80
[4] = dose: 200.0 mg/kg/injection, schedule: Q04DX003 (ip), vehicle: saline with Tween-80
[5] = dose: 400.0 mg/kg/injection, schedule: Q01DX009 (ip), vehicle: saline with Tween-80
[6] = dose: 400.0 mg/kg/injection, schedule: Q04DX003 (ip), vehicle: saline with Tween-80
[7] = dose: 100.0 mg/kg/injection, schedule: Q04DX002 (ip), vehicle: saline with Tween-80
[8] = dose: 200.0 mg/kg/injection, schedule: Q04DX002 (ip), vehicle: saline with Tween-80
[9] = dose: 400.0 mg/kg/injection, schedule: Q04DX002 (ip), vehicle: saline with Tween-80
[10] = dose: 100.0 mg/kg/injection, schedule: Q04DX002 (ip), vehicle: Klucel (hydroxypropylcellulose) (HPC)
[11] = dose: 200.0 mg/kg/injection, schedule: Q04DX002 (ip), vehicle: Klucel (hydroxypropylcellulose) (HPC)
[12] = dose: 400.0 mg/kg/injection, schedule: Q04DX002 (ip), vehicle: Klucel (hydroxypropylcellulose) (HPC)
[13] = dose: 50.0 mg/kg/injection, schedule: Q01DX009 (ip), vehicle: Klucel (hydroxypropylcellulose) (HPC)
[14] = dose: 100.0 mg/kg/injection, schedule: Q01DX009 (ip), vehicle: Klucel (hydroxypropylcellulose) (HPC)
[15] = dose: 200.0 mg/kg/injection, schedule: Q01DX009 (ip), vehicle: Klucel (hydroxypropylcellulose) (HPC)
[16] = dose: 25.0 mg/kg/injection, schedule: Q01DX009 (ip), vehicle: saline with Tween-80
[17] = dose: 50.0 mg/kg/injection, schedule: Q01DX009 (ip), vehicle: saline with Tween-80
[18] = dose: 100.0 mg/kg/injection, schedule: Q04DX003 (ip), vehicle: other
[19] = dose: 200.0 mg/kg/injection, schedule: Q04DX003 (ip), vehicle: other
[20] = dose: 400.0 mg/kg/injection, schedule: Q01DX009 (ip), vehicle: Klucel (hydroxypropylcellulose) (HPC)
[21] = dose: 100.0 mg/kg/injection, schedule: Q01DX001 (ip), vehicle: saline with Tween-80
[22] = dose: 200.0 mg/kg/injection, schedule: Q01DX001 (ip), vehicle: saline with Tween-80
[23] = dose: 400.0 mg/kg/injection, schedule: Q01DX001 (ip), vehicle: saline with Tween-80

Measured: T/C

O=C(/C=C/c1ccc(O)cc1)c1ccccc1
inactive: [1] 102 % of control | [2] 109 % of control | [3] 108 % of control | [4] 102 % of control | [5] 102 % of control | [6] 98 % of control

CCOC(=N)Cc1cc(OC)c(OC)c(OC)c1
inactive: dose: 100.0 mg/kg/injection, schedule: Q04DX003 (ip), vehicle: saline sonified 100 % of control | dose: 200.0 mg/kg/injection, schedule: Q04DX003 (ip), vehicle: saline sonified 98 % of control | dose: 400.0 mg/kg/injection, schedule: Q04DX003 (ip), vehicle: saline sonified 102 % of control

Cc1ccc(NC(=O)N(C)CCC#N)cc1
inactive: [7] 97 % of control | [8] 94 % of control | [9] 87 % of control

O=C(NCCCO)C1C(c2ccccc2)C1c1ccccc1 (stereo unspecified)
inactive: [7] 108 % of control | [8] 102 % of control | [9] 102 % of control

COC(=O)C(Cc1ccc(C)cc1)N1CCCCC1 (stereo unspecified)
inactive: dose: 100.0 mg/kg/injection, schedule: Q01DX001 (ip), vehicle: carboxymethylcellulose (CMC) 101 % of control | dose: 200.0 mg/kg/injection, schedule: Q01DX001 (ip), vehicle: carboxymethylcellulose (CMC) 101 % of control | dose: 400.0 mg/kg/injection, schedule: Q01DX001 (ip), vehicle: carboxymethylcellulose (CMC) 98 % of control

COc1ccc(/C=C2\N=C(c3cccc(Cl)c3)OC2=O)cc1OC
inactive: [1] 105 % of control | [10] 89 % of control | [3] 97 % of control | [11] 92 % of control | [5] 105 % of control | [12] 86 % of control

O=Cc1c(O)ccc2ccccc12
inactive: [10] 90 % of control | [11] 93 % of control | [12] 96 % of control

CCOC(=O)C1C(=O)C(C(C2C(=O)C(C(=O)OCC)C(c3ccc(O)cc3)C(C(=O)OCC)C2=O)C(O)C(O)C(O)CO)C(=O)C(C(=O)OCC)C1c1ccc(O)cc1 (stereo unspecified) (tested in a mixture with another compound)
inactive: [13] 101 % of control and 96 % of control | [14] 93 % of control and 96 % of control | [15] 104 % of control and 107 % of control

Cn1nnnc1N/N=C/c1ccccc1
inactive: [1] 98 % of control | [3] 95 % of control | [5] 95 % of control

Cc1cc(C(C)(C)C)c(SC(=O)N(C)C)c(C(C)(C)C)c1
inactive: [2] 97 % of control | [4] 95 % of control

S=c1[nH]c2ccccc2s1
inactive: [16] 94 % of control | [17] 105 % of control | [14] 88 % of control | [1] 109 % of control | dose: 100.0 mg/kg/injection, schedule: Q04DX002 (ip), vehicle: saline 115 % of control | [18] 96 % of control | [2] 96 % of control | [15] 100 % of control | dose: 200.0 mg/kg/injection, schedule: Q04DX002 (ip), vehicle: saline 112 % of control | [19] 96 % of control | [4] 100 % of control | [20] 95 % of control | dose: 400.0 mg/kg/injection, schedule: Q04DX003 (ip), vehicle: other 101 % of control

O=[N+]([O-])c1cccc(OCCOc2ccc(S(=O)(=O)F)cc2)c1
inactive: [2] 106 % of control | [4] 88 % of control | [6] 93 % of control

CCN(CC)CCCNC(=S)NC(C)(C)CC(C)=O
inactive: [13] 89 % of control | [14] 105 % of control | dose: 100.0 mg/kg/injection, schedule: Q04DX003 (ip), vehicle: saline 97 % of control | dose: 200.0 mg/kg/injection, schedule: Q04DX003 (ip), vehicle: saline 101 % of control | dose: 400.0 mg/kg/injection, schedule: Q04DX003 (ip), vehicle: saline 100 % of control

O=C(CSCc1ccccc1)c1ccccc1
inactive: [2] 90 % of control | [4] 90 % of control | [6] 100 % of control

O=C(C=C(C(F)(F)F)C(F)(F)F)c1ccc(C(=O)C=C(C(F)(F)F)C(F)(F)F)cc1
inactive: dose: 12.5 mg/kg/injection, schedule: Q01DX009 (ip), vehicle: saline with Tween-80 89 % of control | [16] 100 % of control | [17] 94 % of control and 101 % of control

c1ccc([Si]2(c3ccccc3)[Si](c3ccccc3)(c3ccccc3)[Si](c3ccccc3)(c3ccccc3)[Si](c3ccccc3)(c3ccccc3)[Si](c3ccccc3)(c3ccccc3)[Si]2(c2ccccc2)c2ccccc2)cc1
inactive: [2] 102 % of control | dose: 160.0 mg/kg/injection, schedule: Q04DX002 (ip), vehicle: saline with Tween-80 86 % of control | [4] 94 % of control | [9] 86 % of control | [6] 96 % of control

CCN(Cc1ccccc1)C(=O)Nc1ccccc1
inactive: [10] 101 % of control | [11] 93 % of control | [12] 97 % of control

Cc1oncc1/C=C/c1ccon1
inactive: [18] 96 % of control | [19] 91 % of control

O=c1cc(-c2ccccc2)oc2ccccc12
inactive: [14] 97 % of control | [15] 92 % of control | [20] 108 % of control

O=C(O)c1ccc[cH-]1.O=C(O)c1ccc[cH-]1.[Fe+2]
inactive: [10] 110 % of control | [11] 100 % of control | [12] 103 % of control

O=C(Nc1cccc(Cl)c1)c1ccc2ccccc2c1O
inactive: [21] 97 % of control | [1] 106 % of control | [2] 98 % of control | [22] 93 % of control | [3] 98 % of control | [4] 96 % of control | [23] 97 % of control | [5] 101 % of control | [6] 96 % of control

O=C1C=CC(=O)N1c1cccc2c(N3C(=O)C=CC3=O)cccc12
inactive: dose: 11.1 mg/kg/injection, schedule: Q01DX Z (ip), vehicle: methylcellulose (MC) 89 % of control | dose: 16.6 mg/kg/injection, schedule: Q01DX Z (ip), vehicle: methylcellulose (MC) 95 % of control | dose: 25.0 mg/kg/injection, schedule: Q01DX Z (ip), vehicle: methylcellulose (MC) 104 % of control

Cc1ccc(NC(=O)COc2ccc(Cl)cc2Cl)cc1Cl
inactive: [16] 91 % of control | [17] 89 % of control | [1] 86 % of control | [3] 87 % of control | [5] 88 % of control

O=C(Sc1ccccc1)N(c1ccccc1)c1ccccc1
inactive: dose: 100.0 mg/kg/injection, schedule: Q04DX002 (ip), vehicle: gum acacia 117 % of control | dose: 200.0 mg/kg/injection, schedule: Q04DX002 (ip), vehicle: gum acacia 101 % of control | dose: 400.0 mg/kg/injection, schedule: Q04DX002 (ip), vehicle: gum acacia 96 % of control

CCOc1cc(S(N)(=O)=O)ccc1Cl
inactive: [21] 89 % of control | [22] 93 % of control | [23] 96 % of control

COc1ccc(-n2c(=O)c(N=Nc3ccc(Cl)cc3)c(O)n(-c3ccc(I)cc3)c2=S)cc1
inactive: dose: 37.5 mg/kg/injection, schedule: Q01DX001 (ip), vehicle: Klucel (hydroxypropylcellulose) (HPC) 97 % of control | dose: 75.0 mg/kg/injection, schedule: Q01DX001 (ip), vehicle: Klucel (hydroxypropylcellulose) (HPC) 90 % of control | dose: 150.0 mg/kg/injection, schedule: Q01DX001 (ip), vehicle: Klucel (hydroxypropylcellulose) (HPC) 97 % of control

CC(C)(C)C(=O)CC(c1ccccc1)c1ccccc1
inactive: dose: 50.0 mg/kg/injection, schedule: Q01DX001 (ip), vehicle: other 102 % of control | dose: 100.0 mg/kg/injection, schedule: Q01DX001 (ip), vehicle: other 98 % of control | dose: 200.0 mg/kg/injection, schedule: Q01DX001 (ip), vehicle: other 98 % of control | dose: 400.0 mg/kg/injection, schedule: Q01DX001 (ip), vehicle: other 98 % of control

CCCSP(=[Se])(CCC)c1ccccc1 (stereo unspecified)
inactive: dose: 25.0 mg/kg/injection, schedule: Q04DX002 (ip), vehicle: saline with Tween-80 97 % of control | dose: 50.0 mg/kg/injection, schedule: Q04DX002 (ip), vehicle: saline with Tween-80 97 % of control | [7] 101 % of control
